Consider one compound from patent US12123059B2, “Predicting cardiotoxicity risk in cancer patients receiving anthracyclines chemotherapy” (Fundación Para La Investigación Del Hospital Universitario …, priority 2018, dated 2024).

The data set concerns human cardiomyocytes. The data set can be described thus: Modulation of miRNA copy number by Doxorubicin in human cardiomyocytes in culture. Format: cell-based. The note with it: Doxorubicin 1 μM for 24 h, FIG. 4. The protocol:
FIG. 4. (A, B) Graphics showing modulation of miRNAs by Doxorubicin in human cardiomyocytes and patients' serum. Left panels show copy number of indicated miRNAs in cardiomyocytes in culture before or after the addition of Doxorubicin (1 μM) for 24 h. Right panels show copy numbers of indicated miRNAs as detected by RNAseq in serum from control patients and cases and expressed as mean±SEM (N=10 in each case) before or after completion of anthracycline chemotherapy. Only miRNAs showing a similar tendency in cells and patients' serum are illustrated. *P<0.05.
The specific signature of miRNAs has been detected in serum. Since the pathways related to miRNAs are linked to cardiomyocytes, the copy number of the miRNAs of interest in human cardiomyocytes was also measured. As observed in FIG. 4, the miRNAs previously detected in serum were also present in human cardiomyocytes (left panels) and their expression level is altered when cells are damaged by Doxorubicin. […] As shown in the right panel of FIG. 4, the copy number of miRNA-22-3p increases both in cells and serum of patients after anthracycline treatment whereas miRNA-30b, miRNA-148a, miRNA-150-5p, and miRNA-4732-3p decrease their expression levels. […] Indeed, this set of miRNAs regulates genes involved in the aforementioned biological pathways (FIG. 5)

With `COc1cccc2c1C(=O)c1c(O)c3c(c(O)c1C2=O)C[C@@](O)(C(=O)CO)C[C@@H]3O[C@H]1C[C@H](N)[C@H](O)[C@H](C)O1` [Doxorubicin], the “copy number of miRNA-22-3p” value was “increases”, the “expression level of miRNA-30b” value was “decrease”, the “expression level of miRNA-148a” value was “decrease” and the “expression level of miRNA-150-5p” value was “decrease”. Besides, the “expression level of miRNA-4732-3p” value was “decrease”.
